What was measured:
[1] = tested on: HCV genotype 7a (QC69) chimeric HCVcc; assay: Pan-genotypic activity test using chimeric HCVcc, genotype 7a; format: cell-based; conditions: Hepatitis C virus, read-out: EC50 gt7a
Description: (§1) Naïve Huh-7.5 target cells were plated at 2400 cells/well in 25 μL of culture media in 384-well plates (Greiner bio-one, μ clear black). After overnight incubation, compounds serially diluted in 10 μL of cell culture media were added. After 2 h compound treatment, cells were inoculated with 40 μL of genotype 1/2 chimeric cell culture derived HCV (HCVcc) which express structural proteins of an HCV genotype 1a isolate (TN accession number EF621489) and non-structural proteins of HCV genotype 2a (JFH-1) with nano-luciferase reporter. At 72 h post infection, nano-luciferase activity (Nano-Glo™, Promega) and cellular ATP (Cell titer-Glo™, Promega) were measured as a marker for HCV replication and cytotoxicity, respectively. EC50 and CC50 were calculated by non-linear regression analyzing using GraphPad Prism (GraphPad Software).
(§2) In order to evaluate cross-genotypic antiviral activity against various HCV genotypes, Formulas I and II were tested using chimeric HCVcc as described above. HCV chimeras expressing the structural proteins of HCV genotype 1b (J4), 2a (J6), 2b (J8), 3a (S52), 4a (ED43), 5a (SA13), 6a (HK6a) or 7a (QC69), followed by HCV genotype 2a (JFH-1) derived non-structural proteins responsible for viral RNA replication and Renilla luciferase reporter gene were used to monitor viral replication.

[2] = tested on: HCV genotype 1b (J4) chimeric HCVcc; assay: Pan-genotypic activity test using chimeric HCVcc, genotype 1b; format: cell-based; conditions: Hepatitis C virus, read-out: EC50 gt1b
Description: as §1, §2

[3] = tested on: HCV genotype 2b (J8) chimeric HCVcc; assay: Pan-genotypic activity test using chimeric HCVcc, genotype 2b; format: cell-based; conditions: Hepatitis C virus, read-out: EC50 gt2b
Description: as §1, §2

[4] = tested on: HCV genotype 2a (J6) chimeric HCVcc; assay: Pan-genotypic activity test using chimeric HCVcc, genotype 2a; format: cell-based; conditions: Hepatitis C virus, read-out: EC50 gt2a
Description: as §1, §2

[5] = tested on: HCV genotype 4a (ED43) chimeric HCVcc; assay: Pan-genotypic activity test using chimeric HCVcc, genotype 4a; format: cell-based; conditions: Hepatitis C virus, read-out: EC50 gt4a
Description: as §1, §2

[6] = tested on: HCV genotype 5a (SA13) chimeric HCVcc; assay: Pan-genotypic activity test using chimeric HCVcc, genotype 5a; format: cell-based; conditions: Hepatitis C virus, read-out: EC50 gt5a
Description: as §1, §2

[7] = tested on: HCV genotype 1a chimeric HCVcc; assay: Pan-genotypic activity test using chimeric HCVcc, genotype 1a; format: cell-based; conditions: Hepatitis C virus, read-out: EC50 gt1a
[8] = tested on: HCV genotype 3a (S52) chimeric HCVcc; assay: Pan-genotypic activity test using chimeric HCVcc, genotype 3a; format: cell-based; conditions: Hepatitis C virus, read-out: EC50 gt3a
Description: as §1, §2

[9] = tested on: HCV genotype 6a (HK6a) chimeric HCVcc; assay: Pan-genotypic activity test using chimeric HCVcc, genotype 6a; format: cell-based; conditions: Hepatitis C virus, read-out: EC50 gt6a
Description: as §1, §2

[10] = tested on: genotype 1/2 chimeric cell culture derived HCV (HCVcc); assay: Genotype 1/2 chimeric HCVcc assay (nano-luciferase, HCV replication); format: cell-based; conditions: Hepatitis C virus, Huh7.5, 72 h
Summary of the method: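 Huh-7.5 cells (2400/well) pretreated 2 h with serially diluted compound, then infected with nano-luciferase genotype 1a/2a (JFH-1) chimeric HCVcc. At 72 h post infection, nano-luciferase reported replication and cellular ATP reported cytotoxicity; EC50 and CC50 by non-linear regression.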

SMILES	EC50 [1]	EC50 [2]	EC50 [3]	EC50 [4]	EC50 [5]	EC50 [6]	EC50 [7]	EC50 [8]	EC50 [9]	melting point	EC50 [10]
O=C(NCCCN1CCC(N2CCCCC2)CC1)c1ccc(Oc2ccccc2)cc1 [No. 1013]	> 10000 nM	> 10000 nM	100 to 1000 nM	1000 to 10000 nM	> 10000 nM	> 10 µM	> 10000 nM	> 10000 nM	> 10 µM		
CCOC(=O)c1c(NC(=O)NCc2c(-n3cccc3)sc3c2CCNC3)sc2c1CCCC2 [No. 19]	100 to 1000 nM	100 to 1000 nM	100 to 1000 nM	100 to 1000 nM	100 to 1000 nM	1 to 10 µM	100 to 1000 nM	100 to 1000 nM	> 10 µM		
CCN1CCc2c(sc(-n3cccc3)c2CNC(=O)Nc2sccc2C(=O)OC)C1 [Compound 11]										201.8 °C	1000 to 10000 nM
CCN1CCc2c(sc(-n3cccc3)c2CNC(=O)Nc2sc3c(c2C(=O)OC(C)(C)C)CCCC3)C1 [No. 14]	< 100 nM	100 to 1000 nM	< 100 nM	100 to 1000 nM	100 to 1000 nM	1 to 10 µM	100 to 1000 nM	100 to 1000 nM	> 10 µM		
CCOC(=O)c1c(NC(=O)NCc2c(C(F)(F)F)sc3c2CCN(CCN(C)C)C3)sc2c1CCCC2 [No. 316]	< 100 nM	< 100 nM	< 100 nM	< 100 nM	< 100 nM	1 to 10 µM	< 100 nM	< 100 nM	> 10 µM		
CC(C)(C)OC(=O)c1c(NC(=O)NCc2c(C(F)(F)F)sc3c2CCNC3)sc2c1CCCC2 [No. 121]	< 100 nM	< 100 nM	< 100 nM	< 100 nM	< 100 nM	1 to 10 µM	< 100 nM	< 100 nM	> 10 µM		
CCOC(=O)c1c(NC(=O)NCc2c(-n3cccc3)sc3c2CCN(CC)C3)sc(C)c1C [Compound 12]										196.9 °C	100 to 1000 nM
O=C(NCCCN1CCC(N2CCCCC2)CC1)c1ccc(-c2ccc(C(F)(F)F)cc2)cc1 [No. 1019]	> 10000 nM	> 10000 nM	1000 to 10000 nM	1000 to 10000 nM	> 10000 nM	> 10 µM	> 10000 nM	> 10000 nM	> 10 µM		
CC(C)OC(=O)c1c(NC(=O)NCc2c(C(F)(F)F)sc3c2CCNC3)sc2c1CCCC2 [No. 167]	< 100 nM	< 100 nM	< 100 nM	< 100 nM	< 100 nM	1 to 10 µM	< 100 nM	< 100 nM	> 10 µM		
CCOC(=O)c1c(NC(=O)NCc2c(-n3cccc3)sc3c2CCN(S(C)(=O)=O)C3)sc2c1CCCC2 [No. 21]	< 100 nM	< 100 nM		< 100 nM	< 100 nM	1 to 10 µM	< 100 nM	< 100 nM	> 10 µM		
CCOC(=O)c1c(NC(=O)NCc2c(-n3cccc3)sc3c2CCN(CC(C)C)C3)sc2c1CCCC2 [No. 27]	100 to 1000 nM	100 to 1000 nM	100 to 1000 nM	100 to 1000 nM	100 to 1000 nM	1 to 10 µM	100 to 1000 nM	100 to 1000 nM	> 10 µM		
